Results taken from US10359430B2, “Selective near-infrared optical imaging of necrotic cells and simultaneous cell fixing and counter staining with metallacrown complexes” (THE REGENTS OF THE UNIVERSITY OF MICHIGAN, priority 2015, dated 2019).
Values belong to the molecule of their own block, whether it stands above or below them.

How the values were obtained:
[1] = tested on: HeLa cells; test: NIR epifluorescence microscopy of HeLa cells (necrotic cell labelling, simultaneous staining and fixing); format: cell-based, Human
[2] = Photostability stress tests; format: physicochemical
Method: Photostability stress tests of Yb^3+[Zn(II)MCpyzHA] (Yb λem=980 nm) and Nd^3+[Zn(II)MCpyzHA] (Nd λem=1064 nm) and the commercially available dye for necrotic cells (Propidium Iodide) were performed. The complexes (150 μM) or dye (50 μM) were dissolved in water and the complexes were also dissolved in OPTI-MEM® media. The MC solutions were exposed to 5 hours of UV radiation (377 nm). The propidium iodide solution was exposed to 5 hours of UV radiation (530 nm).

[3] = Photophysical properties of the metallacrowns in solid state and in aqueous solutions; format: physicochemical; details: room temperature, excitation at 370 nm
Method: FIG. 4. illustrates the normalized excitation (λem(Nd^3+)=1070 nm, λem(Yb^3+)=980 nm) and emission (λex=370 nm) spectra of Yb^3+[Zn(II)MCpyzHA], at the top, and Nd^3+[Zn(II)MCpyzHA] MCs, at the bottom, (solid or 200 μM solutions, room temperature).

[4] = Photophysical parameters in OPTI-MEM media, cell supernatant and HeLa cells; format: physicochemical
Method: The Yb^3+[Zn(II)MCpyzHA] complexes were dissolved in OPTI-MEM® medium with 2% SVF (without cells) and were incorporated in HeLa cells, both with and without exposure to UV light. The results in are shown in FIG. 20, (A) (corrected and normalized excitation) and FIG. 20, (B) (corrected and normalized emission). […] The present inventors developed instrumentation in order to collect photophysical properties of MCs inside of cancer cells. They measured quantitative photophysical parameters (quantum yields and life times) inside of the cells with equipment which is usually adapted for measuring of (quantum yields and life times) in solids or in concentrated solutions.
The Yb^3+[Zn(II)MCpyzHA] complexes were collected together with cell supernatant (SN) and with HeLa cells treated with N-acetyl cysteine, both with and without exposure to UV light. For SN1 and cells1, incubation with NAC took place for 30 minutes, then the cells were washed, and incubation with Yb^3+[Zn(II)MCpyzHA] took place for 15 minutes. For SN2 and cells2, incubation with Yb^3+[Zn(II)MCpyzHA] took place for 15 minutes, and then NAC was added and incubation with NAC took place for 30 minutes. The results in are shown in FIGS. 20C (corrected and normalized excitation) and 20D (corrected and normalized emission). […]

[5] = Photophysical properties of the metallacrowns in solid state and in aqueous solutions; format: physicochemical
[6] = tested on: HeLa cells; test: NIR epifluorescence microscopy of HeLa cells (necrotic cell labelling, simultaneous staining and fixing); format: cell-based, Human; details: 150 μM complex and 3 μM propidium iodide together, UV light (377 nm) 5 minutes
Method: Cells were seeded in a 8-well Lab Tek Chamber coverglass (Nunc, Dutsher S.A., Brumath, France) at a density of 6×10^4 cells/well and cultured at 37° C. in 5% humidified CO2 atmosphere.
The continued incubation enabled the internalization of the complexes.
All of the previously mentioned incubated HeLa cells were then washed with fresh OPTI-MEM® media and were incubated with 3 μM propidium iodide for 5 minutes. Propidium iodide is a commercially available stain (emitting in the visible range) for necrotic cells, and was used to confirm cell necrosis.
i. 377 nm with 50 nm band-pass filter with 50 nm bandwidth for the excitation and 805 nm long-pass filter 805 nm or 996 nm band-pass filter with 70 nm bandwidth for YbIII emission in the NIR range.
ii. […] for the excitation and 805 nm long-pass filter 805 nm or 996 nm band-pass filter with 70 nm bandwidth for YbIII emission in the NIR range. […]

[7] = Table 3, No UV: After 5 h incubation with HeLa cells without illumination
[8] = Table 3, UV: After 5 h incubation with HeLa cells with UV illumination (during 8 min)

- Photostability ([2]; 150 μM in water and OPTI-MEM media, 5 hours of irradiation with 377 nm light): fully photostable
- Q (quantum yield), D2O ([3]; 200 μM in D2O): 6.17(9) · 10^−2%
- Q (quantum yield), H2O ([3]; 200 μM in H2O): 7.7(1) · 10^−3%
- Q (quantum yield), Solid ([3]; solid state): 0.444(9) %
- τ2 ([4]; Table 3, In HeLa cells): 0.808(8) μs
- τ2 contribution (longer component) ([4]; Table 3, In HeLa cells): 100%
- Quantum yield [4, 7]: 7.50(5) · 10^−3%
- τ1 [4, 7]: 0.261(1) μs
- τ1 contribution [4, 7]: 85%
- τ2 [4, 7]: 0.98(1) μs
- τ2 contribution [4, 7]: 15%
- Quantum yield ([4]; Table 3, OptiMEM): 7.33(1) · 10^−3%
- τ1 ([4]; Table 3, OptiMEM): 0.256(6) μs
- τ1 contribution ([4]; Table 3, OptiMEM): 90%
- τ2 ([4]; Table 3, OptiMEM): 1.1(1) μs
- τ2 contribution ([4]; Table 3, OptiMEM): 10%
- Quantum yield ([4]; Table 3, OptiMEM-UV 1 h 30 min): 7.7(1) · 10^−3%
- τ1 ([4]; Table 3, OptiMEM-UV 1 h 30 min): 0.352(2) μs
- τ1 contribution ([4]; Table 3, OptiMEM-UV 1 h 30 min): 67%
- τ2 ([4]; Table 3, OptiMEM-UV 1 h 30 min): 0.874(7) μs
- τ2 contribution ([4]; Table 3, OptiMEM-UV 1 h 30 min): 33%
- Quantum yield [4, 8]: 6.2(1) · 10^−3%
- τ1 [4, 8]: 0.376(3) μs
- τ1 contribution [4, 8]: 60%
- τ2 [4, 8]: 0.83(2) μs
- τ2 contribution [4, 8]: 40%
- τ (luminescence lifetime), D2O ([5]; 200 μM in D2O, room temperature, excitation at 355 nm): 1.29(1) μs
- τ (luminescence lifetime), H2O ([5]; 200 μM in H2O, room temperature, excitation at 355 nm): 0.214(4) μs
- q (number of coordinated water molecules) ([5]; calculated from lifetimes, estimated error ±0.2): 0.1
- τ (luminescence lifetime), Solid ([5]; solid state, room temperature, excitation at 355 nm): 1.71(1) μs
SMILES: O=C([N-][O-])c1cnccn1.O=C([N-][O-])c1cnccn1.O=C([N-][O-])c1cnccn1.O=C([N-][O-])c1cnccn1.O=C([N-][O-])c1cnccn1.O=C([N-][O-])c1cnccn1.O=C([N-][O-])c1cnccn1.O=C([N-][O-])c1cnccn1.O=C([N-][O-])c1cnccn1.O=C([N-][O-])c1cnccn1.O=C([N-][O-])c1cnccn1.O=C([N-][O-])c1cnccn1.O=C([N-][O-])c1cnccn1.O=C([N-][O-])c1cnccn1.O=C([N-][O-])c1cnccn1.O=C([N-][O-])c1cnccn1.O=S(=O)([O-])C(F)(F)F.O=S(=O)([O-])C(F)(F)F.O=S(=O)([O-])C(F)(F)F.[Nd+3].[Zn+2].[Zn+2].[Zn+2].[Zn+2].[Zn+2].[Zn+2].[Zn+2].[Zn+2].[Zn+2].[Zn+2].[Zn+2].[Zn+2].[Zn+2].[Zn+2].[Zn+2].[Zn+2].c1ccncc1.c1ccncc1.c1ccncc1.c1ccncc1.c1ccncc1.c1ccncc1.c1ccncc1.c1ccncc1 [Nd^3+[Zn(II)MCpyzHA]]
- Fixing and staining of HeLa cells ([1]; 150 μM, 15 minutes, UV light (377 nm) 8 minutes, further 1 hour): fixed and stained
- Change of luminescent properties in media, cell supernatant or HeLa cells ([4]; with/without exposure to UV light): did not change in OPTI-MEM® media or inside of the HeLa cells

- Photostability (fluorescence intensity) ([2]; 50 μM in water, 5 hours of irradiation at 530 nm): dropped half of its initial intensity
SMILES: CC[N+](C)(CC)CCC[n+]1c(-c2ccccc2)c2cc(N)ccc2c2ccc(N)cc21.[I-].[I-] [propidium iodide, reference compound]
- Specificity of the dye for cell state ([1]; 150 μM complex and 3 μM propidium iodide together, UV light (377 nm) 5 minutes): specific for dead and apoptotic cells
- Incubation time after which emission was observed in cells after UV illumination [6]: 15 min
